The results in this text go back to PubChem BioAssay (NCI).

Some test systems named below: SNB-19 CNS; EKVX NSCLC; TK-10 renal; BT-549 breast; SK-OV-3 ovarian; SF-268 CNS; HCC-2998 colon; UO-31 renal; HOP-62 NSCLC; DU-145 prostate; MDA-MB-231 breast; HS 578T breast; MCF7 breast; SF-295 CNS; M14 melanoma; K-562 leukemia; A498 renal; SK-MEL-5 melanoma; KM12 colon.
What all share (test): NCI-60 cell line screen, 48 h

The structures appear in SMILES notation.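 How tested: cells in 96-well plates exposed to compound for 48 hours at five concentrations. TGI: total growth inhibition.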 Some results are limits rather than exact numbers.

As to `O=P1(C(O)/C=C/c2ccccc2)N(Cc2ccccc2)[C@H](c2ccccc2)[C@@H](c2ccccc2)N1Cc1ccccc1` (stereo partly specified), the TGI in the experiment on SNB-19 CNS was more than 100 µM; in the experiment on EKVX NSCLC, more than 96.1 µM; with TK-10 renal, more than 100 µM; in the experiment with BT-549 breast, more than 89.4 µM; with SK-OV-3 ovarian, more than 81.8 µM; in the experiment on SF-268 CNS it was more than 100 µM. For the same compound, the TGI with HCC-2998 colon was more than 100 µM; in the experiment on UO-31 renal, 98.3 µM; in the experiment on HOP-62 NSCLC it was more than 93.3 µM; in the experiment on DU-145 prostate, more than 100 µM; in the experiment with MDA-MB-231 breast it was 69.7 µM; in the experiment on HS 578T breast it was more than 90.2 µM. For the same compound, the TGI in the experiment on MCF7 breast was more than 100 µM; with SF-295 CNS it was more than 64.4 µM; in the experiment on M14 melanoma, more than 100 µM; in the experiment on K-562 leukemia, more than 80.6 µM; in the experiment with A498 renal, more than 100 µM; with SK-MEL-5 melanoma, 41.2 µM. In addition, in the experiment with KM12 colon, the TGI was more than 100 µM.
Take `O=c1c2cc(-c3ccccc3)sc2nc2n1N=C(c1ccccc1)CS2`: the TGI was more than 100 µM in the experiment with EKVX NSCLC; more than 100 µM with TK-10 renal; 46.7 µM with BT-549 breast; 26.3 µM in the experiment with SK-OV-3 ovarian; more than 100 µM with SF-268 CNS; more than 100 µM in the experiment with HCC-2998 colon. Moreover, the TGI is more than 100 µM in the experiment with UO-31 renal; 23 µM in the experiment with HOP-62 NSCLC; more than 100 µM with DU-145 prostate; more than 100 µM in the experiment with MDA-MB-231 breast; 49.4 µM in the experiment on HS 578T breast; 96.2 µM with MCF7 breast. For the same compound, the TGI in the experiment with SF-295 CNS was 44.2 µM; in the experiment on K-562 leukemia, more than 100 µM; in the experiment on A498 renal it was 71.9 µM; with SK-MEL-5 melanoma it was 79.3 µM; with KM12 colon, more than 100 µM.
Regarding `CC1=NCCN=C(C)C1N=Nc1ccc2nc(C)[nH]c2c1`, the TGI was 28.7 µM in the experiment on SNB-19 CNS; 39.6 µM with EKVX NSCLC; 42.9 µM in the experiment on TK-10 renal; 28.2 µM with BT-549 breast; 39.2 µM with SK-OV-3 ovarian; 46.4 µM with SF-268 CNS. In addition, the TGI in the experiment with HCC-2998 colon was 41.1 µM; in the experiment on HOP-62 NSCLC, 61.1 µM; in the experiment on DU-145 prostate, 30.9 µM; with MDA-MB-231 breast, 31.2 µM; in the experiment on HS 578T breast, 57.5 µM; in the experiment on MCF7 breast, 30.1 µM. Moreover, the TGI was determined as 31.5 µM in the experiment with SF-295 CNS; 16.8 µM in the experiment with M14 melanoma; 20.1 µM in the experiment on K-562 leukemia; 18 µM with A498 renal; 30.9 µM in the experiment with KM12 colon.
In the case of `C/C=C/[C@H]1O[C@@](O)([C@@H](C)[C@H](O)[C@H](C)[C@H]2OC(=O)/C(OC)=C/C(C)=C/[C@@H](C)[C@@H](O)[C@@H](CC)[C@@H](O)[C@H](C)C/C(C)=C/C=C/[C@@H]2OC)C[C@H](OC2CC(O)C(O)C(C)O2)[C@@H]1C` (stereo partly specified), the TGI in the experiment with SNB-19 CNS was determined as 15.7 µM; with EKVX NSCLC, 11.8 µM; with TK-10 renal it was 18.9 µM; in the experiment with BT-549 breast, 14.1 µM; in the experiment on SK-OV-3 ovarian it was 16.9 µM; with SF-268 CNS, 25.6 µM. The TGI with HCC-2998 colon stood at 11.8 µM; with UO-31 renal, 0.29 µM; with HOP-62 NSCLC it was 2.7 µM; in the experiment on DU-145 prostate, 15.1 µM; in the experiment with MDA-MB-231 breast, 13.9 µM; with HS 578T breast, 17.3 µM. In addition, the TGI with MCF7 breast was 8.58 µM; with SF-295 CNS, 10.4 µM; in the experiment on M14 melanoma it was less than 0.0075 µM; in the experiment on A498 renal it was 12.2 µM; in the experiment on SK-MEL-5 melanoma it was 0.0828 µM; in the experiment on KM12 colon, 12 µM.
Regarding `CC(=O)Nc1ccc(Nc2cc(=O)[nH]c(=O)[nH]2)cc1`, the TGI in the experiment on SNB-19 CNS, in the experiment with EKVX NSCLC, in the experiment on TK-10 renal, with BT-549 breast, in the experiment with SF-268 CNS and in the experiment on HCC-2998 colon was more than 100 µM in each case. The TGI with UO-31 renal, in the experiment on HOP-62 NSCLC, with DU-145 prostate, in the experiment on MDA-MB-231 breast, in the experiment with HS 578T breast and in the experiment on MCF7 breast was more than 100 µM in each case. Further, the TGI in the experiment on SF-295 CNS, in the experiment on M14 melanoma, in the experiment on K-562 leukemia, in the experiment on A498 renal, in the experiment on SK-MEL-5 melanoma and with KM12 colon was more than 100 µM throughout.
Turning to `NC(Cc1ccc(S(=O)(=O)O)cc1)C(=O)NC(CCCCNC(=O)NCCCCC(NC(=O)C(N)Cc1ccc(S(=O)(=O)O)cc1)C(=O)NC(Cc1ccc(S(=O)(=O)O)cc1)C(=O)O)C(=O)NC(Cc1ccc(S(=O)(=O)O)cc1)C(=O)O` (stereo unspecified), the TGI in the experiment with EKVX NSCLC, in the experiment with TK-10 renal, with BT-549 breast, with SK-OV-3 ovarian, with SF-268 CNS and in the experiment on HCC-2998 colon was more than 100 µM each time. Further, the TGI in the experiment with UO-31 renal, with HOP-62 NSCLC, in the experiment on DU-145 prostate, in the experiment on MDA-MB-231 breast, in the experiment on HS 578T breast and with MCF7 breast was more than 100 µM throughout. Also, the TGI in the experiment with SF-295 CNS, with M14 melanoma, in the experiment with K-562 leukemia, with A498 renal, in the experiment on SK-MEL-5 melanoma and with KM12 colon was more than 100 µM each time.
Turning to `COc1cc(Cc2cc3c(c(C(=O)O)c2Br)OCO3)cc(OC)c1OC`, the TGI in the experiment with SNB-19 CNS, in the experiment on EKVX NSCLC, in the experiment on TK-10 renal, in the experiment with BT-549 breast, in the experiment on SK-OV-3 ovarian and in the experiment with HCC-2998 colon was more than 100 µM in each case. The TGI in the experiment on UO-31 renal, in the experiment on HOP-62 NSCLC, with DU-145 prostate, in the experiment on MDA-MB-231 breast, with HS 578T breast and in the experiment with MCF7 breast was more than 100 µM throughout. The TGI with SF-295 CNS, with M14 melanoma, in the experiment with K-562 leukemia, with A498 renal, in the experiment on SK-MEL-5 melanoma and with KM12 colon was more than 100 µM each time.
As for `O=C(OCc1ccccc1CN1CCOCC1)c1cccc(Br)c1`, the TGI in the experiment on SNB-19 CNS, in the experiment with EKVX NSCLC, in the experiment with BT-549 breast, in the experiment on SK-OV-3 ovarian, with SF-268 CNS and with HCC-2998 colon was more than 100 µM each time. For the same compound, the TGI with UO-31 renal, in the experiment on HOP-62 NSCLC, with DU-145 prostate, in the experiment on MDA-MB-231 breast, in the experiment with HS 578T breast and in the experiment on MCF7 breast was more than 100 µM in each case. In addition, the TGI in the experiment with M14 melanoma was more than 100 µM; in the experiment on K-562 leukemia, more than 100 µM; in the experiment with A498 renal it was more than 100 µM; in the experiment with SK-MEL-5 melanoma, 33.3 µM.
